Source: patent publication US12187709B2 (Genentech, Inc., priority 2021, dated 2025)

Experiments:
[1] = molecular target: Cbl-b (Homo sapiens (Human), UniProt Q13191); experiment: Cbl-b LCK Ub TR-FRET assay (Cbl-b Lck HTRF); type: biochemical; settings: for IC50: Cbl-b LCK Ub TR-FRET; for fold-selectivity (Cbl-b over C-cbl): ratio C-cbl Lck HTRF IC50 / Cbl-b Lck HTRF IC50
Method in brief: (§1)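 After the ubiquitination reaction, detection mixture was added and plates incubated 20 min at room temperature before reading. IC50 values were calculated with wells lacking LCK as the low control and DMSO as the high control.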

[2] = molecular target: c-Cbl (Homo sapiens (Human), UniProt P22681); experiment: C-Cbl LCK Ub TR-FRET assay (C-cbl Lck HTRF); type: biochemical
Method in brief: as §1

Chain of c-Cbl (P22681 47-435): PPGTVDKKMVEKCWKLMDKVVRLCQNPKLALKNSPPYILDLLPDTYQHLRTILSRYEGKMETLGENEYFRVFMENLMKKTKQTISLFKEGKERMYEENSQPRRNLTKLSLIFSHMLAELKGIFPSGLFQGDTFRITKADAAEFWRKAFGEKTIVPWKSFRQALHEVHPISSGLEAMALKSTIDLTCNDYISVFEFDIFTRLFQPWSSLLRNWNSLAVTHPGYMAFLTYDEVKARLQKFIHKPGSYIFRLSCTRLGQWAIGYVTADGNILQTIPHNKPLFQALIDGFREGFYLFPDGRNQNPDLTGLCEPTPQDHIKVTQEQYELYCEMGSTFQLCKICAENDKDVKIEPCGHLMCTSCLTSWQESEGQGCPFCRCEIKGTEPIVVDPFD
Chain of Cbl-b (Q13191 40-426): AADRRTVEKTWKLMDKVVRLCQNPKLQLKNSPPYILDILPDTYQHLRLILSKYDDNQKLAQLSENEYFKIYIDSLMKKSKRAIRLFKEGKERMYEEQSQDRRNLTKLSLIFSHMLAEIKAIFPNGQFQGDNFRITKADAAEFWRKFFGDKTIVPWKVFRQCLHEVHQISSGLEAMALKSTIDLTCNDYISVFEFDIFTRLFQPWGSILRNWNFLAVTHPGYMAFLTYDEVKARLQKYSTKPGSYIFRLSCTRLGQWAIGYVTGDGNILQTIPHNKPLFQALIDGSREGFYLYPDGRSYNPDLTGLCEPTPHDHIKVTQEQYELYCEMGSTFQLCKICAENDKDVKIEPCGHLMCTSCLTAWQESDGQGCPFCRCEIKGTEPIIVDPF

IC50 [1] [µM] | fold-selectivity (Cbl-b over C-cbl) [1] [x] | IC50 [2] [µM] | Structure (SMILES)
11 | 1.7 | 20 | Cn1cnnc1[C@H](c1cccc(N2Cc3c(cc(CNC4(C)CCC4)cc3C(F)(F)F)C2=O)c1)C1CC2(COC2)C1 [Compound 121, (S)-2-(3-((4-methyl-4H-1,2,4-triazol-3-yl)(2-oxaspiro[3.3]heptan-6-yl)methyl)phenyl)-6-(((1-methylcyclobutyl)amino)methyl)-4-(trifluoromethyl)isoindolin-1-one]
1.4 | 1.6 | 2.1 | Cn1cnnc1[C@@H](c1cccc(N2Cc3c(cc(CNC4(C)CCC4)cc3C(F)(F)F)C2=O)c1)C1CC2(COC2)C1 [Compound 122, (R)-2-(3-((4-methyl-4H-1,2,4-triazol-3-yl)(2-oxaspiro[3.3]heptan-6-yl)methyl)phenyl)-6-(((1-methylcyclobutyl)amino)methyl)-4-(trifluoromethyl)isoindolin-1-one]
0.023 | 1.5 | 0.034 | Cn1cnnc1[C@@H](c1cccc(N2Cc3c(cc(CNC4(C)CCC4)cc3C(F)(F)F)C2=O)c1)[C@@H]1CCOC1 [Compound 168, 2-(3-((R)-(4-methyl-4H-1,2,4-triazol-3-yl)((S)-tetrahydrofuran-3-yl)methyl)phenyl)-6-(((1-methylcyclobutyl)amino)methyl)-4-(trifluoromethyl)isoindolin-1-one]
5.7 | 1.7 | 9.7 | Cn1cnnc1C1(c2cccc(N3Cc4c(cccc4C(F)(F)F)C3=O)c2)CC2(COC2)C1 [Compound 191, 2-(3-(6-(4-methyl-4H-1,2,4-triazol-3-yl)-2-oxaspiro[3.3]heptan-6-yl)phenyl)-4-(trifluoromethyl)isoindolin-1-one]
15 | 1.4 | 20 | Cn1cnnc1C1(c2cccc(N3Cc4c(cc(CNC5(C)CCC5)cc4C(F)(F)F)C3=O)c2)CC2(CN(C3COC3)C2)C1 [Compound 199, 2-(3-(6-(4-methyl-4H-1,2,4-triazol-3-yl)-2-(oxetan-3-yl)-2-azaspiro[3.3]heptan-6-yl)phenyl)-6-(((1-methylcyclobutyl)amino)methyl)-4-(trifluoromethyl)isoindolin-1-one]
0.34 | 1.2 | 0.39 | CO[C@H]1C[C@@](c2cc(C)cc(N3Cc4c(cc(CNC5(C)CCC5)cc4C(F)(F)F)C3=O)c2)(c2nncn2C)C1 [Compound 237, 2-(3-((1s,3s)-3-methoxy-1-(4-methyl-4H-1,2,4-triazol-3-yl)cyclobutyl)-5-methylphenyl)-6-(((1-methylcyclobutyl)amino)methyl)-4-(trifluoromethyl)isoindolin-1-one]
3.1 | 1.2 | 3.6 | Cn1cnnc1[C@@H](CC1COC1)c1cccc(N2Cc3c(cc(CNC4(C)CCC4)cc3C(F)(F)F)C2=O)c1 [Compound 244, (S)-2-(3-(1-(4-methyl-4H-1,2,4-triazol-3-yl)-2-(oxetan-3-yl)ethyl)phenyl)-6-(((1-methylcyclobutyl)amino)methyl)-4-(trifluoromethyl)isoindolin-1-one]
0.049 | 2.2 | 0.11 | Cn1cnnc1[C@H](CC1COC1)c1cccc(N2Cc3c(cc(CNC4(C)CCC4)cc3C(F)(F)F)C2=O)c1 [Compound 245, (R)-2-(3-(1-(4-methyl-4H-1,2,4-triazol-3-yl)-2-(oxetan-3-yl)ethyl)phenyl)-6-(((1-methylcyclobutyl)amino)methyl)-4-(trifluoromethyl)isoindolin-1-one]
1.4 | 1.6 | 2.1 | Cn1cnnc1[C@@H](CC1CCCC1)c1cccc(N2Cc3c(cc(CNC4(C)CCC4)cc3C(F)(F)F)C2=O)c1 [Compound 248, (S)-2-(3-(2-cyclopentyl-1-(4-methyl-4H-1,2,4-triazol-3-yl)ethyl)phenyl)-6-(((1-methylcyclobutyl)amino)methyl)-4-(trifluoromethyl)isoindolin-1-one]
3.1 | 1.2 | 3.6 | Cn1cnnc1[C@@H](c1cccc(N2Cc3c(cc(CNC4(C)CCC4)cc3C(F)(F)F)C2=O)c1)C1CCCCC1 [Compound 250, (R)-2-(3-(cyclohexyl(4-methyl-4H-1,2,4-triazol-3-yl)methyl)phenyl)-6-(((1-methylcyclobutyl)amino)methyl)-4-(trifluoromethyl)isoindolin-1-one]
0.12 | 1.1 | 0.14 | Cn1cnnc1[C@@H](CC1CCOCC1)c1cccc(N2Cc3c(cc(CNC4(C)CCC4)cc3C(F)(F)F)C2=O)c1 [Compound 253, (S)-2-(3-(1-(4-methyl-4H-1,2,4-triazol-3-yl)-2-(tetrahydro-2H-pyran-4-yl)ethyl)phenyl)-6-(((1-methylcyclobutyl)amino)methyl)-4-(trifluoromethyl)isoindolin-1-one]
≥ 20 | 1.0 | 20 | Cn1cnnc1[C@H](CC1(C)COC1)c1cccc(N2Cc3c(cc(CNC4(C)CCC4)cc3C(F)(F)F)C2=O)c1 [Compound 254, (R)-2-(3-(1-(4-methyl-4H-1,2,4-triazol-3-yl)-2-(3-methyloxetan-3-yl)ethyl)phenyl)-6-(((1-methylcyclobutyl)amino)methyl)-4-(trifluoromethyl)isoindolin-1-one]
0.76 | 1.3 | 0.99 | Cn1cnnc1[C@@H](CC1(C)COC1)c1cccc(N2Cc3c(cc(CNC4(C)CCC4)cc3C(F)(F)F)C2=O)c1 [Compound 255, (S)-2-(3-(1-(4-methyl-4H-1,2,4-triazol-3-yl)-2-(3-methyloxetan-3-yl)ethyl)phenyl)-6-(((1-methylcyclobutyl)amino)methyl)-4-(trifluoromethyl)isoindolin-1-one]
1.7 | 1.6 | 2.7 | Cn1cnnc1[C@H](CC1CCC1)c1cccc(N2Cc3c(cc(CNC4(C)CCC4)cc3C(F)(F)F)C2=O)c1 [Compound 268, (R)-2-(3-(2-cyclobutyl-1-(4-methyl-4H-1,2,4-triazol-3-yl)ethyl)phenyl)-6-(((1-methylcyclobutyl)amino)methyl)-4-(trifluoromethyl)isoindolin-1-one]
0.076 | 4.0 | 0.3 | Cn1cnnc1[C@@H](CC1CCC1)c1cccc(N2Cc3c(cc(CNC4(C)CCC4)cc3C(F)(F)F)C2=O)c1 [Compound 269, (S)-2-(3-(2-cyclobutyl-1-(4-methyl-4H-1,2,4-triazol-3-yl)ethyl)phenyl)-6-(((1-methylcyclobutyl)amino)methyl)-4-(trifluoromethyl)isoindolin-1-one]
≥ 20 | 1.0 | 20 | Cn1cnnc1[C@H](C[C@@H]1CCOC1)c1cccc(N2Cc3c(cc(CNC4(C)CCC4)cc3C(F)(F)F)C2=O)c1 [Compound 275, 2-(3-((R)-1-(4-methyl-4H-1,2,4-triazol-3-yl)-2-((R)-tetrahydrofuran-3-yl)ethyl)phenyl)-6-(((1-methylcyclobutyl)amino)methyl)-4-(trifluoromethyl)isoindolin-1-one]
≥ 20 | 1.0 | 20 | Cn1cnnc1[C@@H](C[C@@H]1CCOC1)c1cccc(N2Cc3c(cc(CNC4(C)CCC4)cc3C(F)(F)F)C2=O)c1 [Compound 276, 2-(3-((S)-1-(4-methyl-4H-1,2,4-triazol-3-yl)-2-((R)-tetrahydrofuran-3-yl)ethyl)phenyl)-6-(((1-methylcyclobutyl)amino)methyl)-4-(trifluoromethyl)isoindolin-1-one]
0.51 | 7.3 | 3.7 | C[C@@H](NC1(C)CCC1)c1cc2c(c(C(F)(F)F)c1)CN(c1cccc(C(c3nncn3C)C3COC3)c1)C2=O (stereo partly drawn) [Compound 284, 2-(3-((4-methyl-4H-1,2,4-triazol-3-yl)(oxetan-3-yl)methyl)phenyl)-6-((R)-1-((1-methylcyclobutyl)amino)ethyl)-4-(trifluoromethyl)isoindolin-1-one]
≥ 20 | 1.0 | 20 | Cn1cnnc1[C@H](CC1CCS(=O)(=O)CC1)c1cccc(N2Cc3c(cc(CNC4(C)CCC4)cc3C(F)(F)F)C2=O)c1 [Compound 286, (R)-2-(3-(2-(1,1-dioxidotetrahydro-2H-thiopyran-4-yl)-1-(4-methyl-4H-1,2,4-triazol-3-yl)ethyl)phenyl)-6-(((1-methylcyclobutyl)amino)methyl)-4-(trifluoromethyl)isoindolin-1-one]
≥ 20 | 1.0 | 20 | Cn1cnnc1[C@@H](CC1CCS(=O)(=O)CC1)c1cccc(N2Cc3c(cc(CNC4(C)CCC4)cc3C(F)(F)F)C2=O)c1 [Compound 287, (S)-2-(3-(2-(1,1-dioxidotetrahydro-2H-thiopyran-4-yl)-1-(4-methyl-4H-1,2,4-triazol-3-yl)ethyl)phenyl)-6-(((1-methylcyclobutyl)amino)methyl)-4-(trifluoromethyl)isoindolin-1-one]
13 | 1.5 | 20 | Cn1cnnc1[C@@H](c1cccc(N2Cc3c(cc(CNC4(C)CCC4)cc3C(F)(F)F)C2=O)c1)C1CCOCC1 [Compound 290, (R)-2-(3-((4-methyl-4H-1,2,4-triazol-3-yl)(tetrahydro-2H-pyran-4-yl)methyl)phenyl)-6-(((1-methylcyclobutyl)amino)methyl)-4-(trifluoromethyl)isoindolin-1-one]
